Measurements as given in patent US20220151887A1 (AQUA BANK CO.,LTD., priority 2019, published 2022).

Assays:
[1] = Method: (§1) The selection criteria were good health and no smoking. The subjects were allowed to sit in a sitting position for 30 minutes after entering a test room set at a room temperature of 24° C. and a relative humidity of 50% to acclimatize to the experimental environment. After acclimation, physiological measurements were conducted. As the physiological measurements, skin temperature measurements were performed.
<<Evaluation of Pupil Contraction Rate in Pupil Reaction to Light by Measuring Pupil Reaction to Light (Single Time Evaluation Test (FIG. 6))>>
After confirming that the pupil dilatation was stable, light stimulation was given for 0.1 seconds. […] The pupil contraction rate (CR), which is the rate of pupil contraction, was determined by the following expression:
Note that the pupil rapidly dilates after it contracts, and the pupil expanding speed (vd) at that time reflects the state of sympathetic nervous activity. The predominance of sympathetic nervous activity and parasympathetic nervous activity in autonomous nervous activity was determined by analysis of changes in pupil diameter.

[2] = remark: listed apart in the source
Method: as §1
<<Evaluation of Sympathetic Nervous Activity by Measuring Skin Temperature ((Single Time Evaluation Test (FIG. 7))>>
Since many of the peripheral blood vessel networks are controlled by sympathetic nervous activity, the predominance or inferiority of sympathetic nervous activity can be evaluated by measuring changes in blood flow in the peripheral site or changes in skin temperature in the peripheral site. Therefore, in this verification, the change in skin temperature was used as the index. In other words, changes in the skin temperatures (at the center of the forehead and the first segment pad of the index finger) of the peripheral site were measured by a temperature sensor (manufactured by Gram Corporation). The increased skin temperature in the test product is determined by the following expression:
where H1 is the temperature of the forehead center part of the control, F1 is the temperature of the finger pad center part of the control, H2 is the temperature of the forehead center part of the sample, and F2 is the temperature of the finger pad center part of the sample.
Note that, in the measurement data analysis in the physiological evaluation, the difference between the control and the blank and the difference between the test product and the blank were compared using the t-test. The significance level of the t-test was set to less than 5%.

[3] = hydrogen continuous use period 2 weeks, difference not significant
Method: (§2) During the test period, each subject was required to perform the same skin care method as they do on a daily basis, and not to add or change cosmetics or supplements.
(§3) In other words, the subjects were divided into two groups, Group A and Group B each having 11 subjects. […] Skin physiological measurements were conducted at the start of the test (zero week), the second and fourth weeks (actually, the subjects also answered questionnaires of the 30 items of the stress checklist and the multifaceted emotion scale for verification of influences on stress, which is a factor of increased skin metabolism, as is omitted here). The measurement items include: the stratum corneum water content; transepidermal water loss; skin viscoelasticity; skin color; facial image analysis by photographing with a digital imaging device (VSIA); and skin blood flow measurement with a non-contact blood flow meter.
(§4) The subjects executed the inhalation for five minutes each time in the morning and evening and approximately 1 hour after each meal, as in the single time test, with the goal of using five times a day.
(§5) The skin physiological measurements include: the stratum corneum water content; transepidermal water loss; skin viscoelasticity; skin color; facial image analysis by photographing with a digital imaging device (VSIA); and skin blood flow measurement with a non-contact blood flow meter. […] In the measurements listed below, the cheek site, which was the measurement site, was measured after 15 minutes of acclimation in a constant temperature and humidity chamber (temperature 20±2° C., humidity 50±10%) after the face washing. What was measured in each measurement are described below.
The measurements were performed at zero, second and fourth weeks.

[4] = hydrogen continuous use period 2 weeks, cheek, not significant vs non-continuous use period
Method: as §2
In other words, the subjects were divided into two groups, Group A and Group B each having 11 subjects. […] Skin physiological measurements were conducted at the start of the test (zero week), the second and fourth weeks (actually, the subjects also answered questionnaires of the 30 items of the stress checklist and the multifaceted emotion scale for verification of influences on stress, which is a factor of increased skin metabolism, as is omitted here). […]
as §5
The degree of skin moisturization was determined by measuring the stratum corneum water content. […]

[5] = remark: listed apart in the source
Method: as §2, §3, §4
The skin physiological measurements include: the stratum corneum water content; transepidermal water loss; skin viscoelasticity; skin color; facial image analysis by photographing with a digital imaging device (VSIA); and skin blood flow measurement with a non-contact blood flow meter. […] In the measurements listed below, the cheek site, which was the measurement site, was measured after 15 minutes of acclimation in a constant temperature and humidity chamber (temperature 20±2° C., humidity 50±10%) after the face washing. What was measured in each measurement are described below. […]
(§6) The p-value was calculated as the probability to determine whether there was a statistically significant difference in the difference average values of the respective groups, and the effect size was calculated as an index representing the magnitude of the difference between the difference average values, so that the two groups are compared with each other.

[6] = remark: listed apart in the source
Method: as §2, §3, §4, §5
Skin images of the measurement site were photographed using VISIA (registered trademark) Evolution (Canfield Imaging Systems), and each skin property was analyzed. The software attached to the device was used to measure the scores of pores, spots, wrinkles, texture, redness, porphyrin, and brown spots. The measurements were performed at zero, second and fourth weeks.
as §6

[7] = hydrogen continuous use period vs non-continuous use period
[8] = hydrogen continuous use period vs nonuse period

For `[HH]` [hydrogen], the “pupil expanding speed (vd)” value ([1]; after hydrogen inhalation (not shown)) was “almost unchanged”, the “pupil contraction rate in the pupil reaction to light” value ([1]; after hydrogen inhalation for 1, 3, 5, 7 and 9 minutes (FIG. 6)) was “increased significantly in a time-dependent manner” and the “pupil contraction rate CR” value ([1]; after hydrogen inhalation, especially 5 minutes or more, vs before inhalation, p<0.001) was “significantly increased”. For the same molecule, the “skin temperature of the index finger, average increase” value ([2]; hydrogen inhalation for 5 minutes vs control, 17 subjects, p<0.001) was 3.6 °C, the “skin temperature of the forehead, change” value ([2]; hydrogen inhalation for 5 minutes vs spontaneous breathing control) was “hardly found to change” and the “skin temperature of the index finger, increase in individual subjects” value ([2]; hydrogen inhalation for 5 minutes, some subjects) was ≥ 6 °C. For the same molecule, the “skin color ΔL* (black and white degree), difference average value” ([3]; cheek) was “+0.30”, the “skin color Δa* (redness degree), difference average value” ([3]; cheek) was −0.23 and the “skin color Δb* (yellowness degree), difference average value” ([3]; cheek) was −0.20. For the same molecule, the “skin blood flow changes, difference average value” ([3]; entire face) was −0.20, the “skin (stratum corneum) water content, difference average value” ([4]; 5 min about five times a day) was “+34.9 μS” and the “transepidermal water loss, difference average value” [4] was “+34.9”. For the same molecule, the “instantaneous skin return rate R7 (Ur/Uf), difference average value” ([5]; hydrogen continuous use period 2 weeks, cheek, p 0.028 vs nonuse period) was 0.01, the “R7 (Ur/Uf) effect size” value ([5]; hydrogen continuous use period vs hydrogen nonuse period) was 0.74 and the “skin return rate R2, difference average value” ([5]; hydrogen use period 2 weeks, cheek, p 0.076 vs nonuse period) was 0.01. For the same molecule, the “number of porphyrins, difference average value” ([6]; hydrogen continuous use period 2 weeks, difference not significant) was −103.05, the “number of spots, difference average value” ([6]; hydrogen continuous use period 2 weeks, p 0.0012 vs nonuse period) was −1.8 and the “redness of the skin color, difference average value” ([6]; hydrogen continuous use period 2 weeks, p 0.042 vs non-continuous use period) was −5.1. The “number of brown spots, difference average value” ([6]; hydrogen continuous use period 2 weeks, p 0.046 vs nonuse period) was −13.7, the “VISIA pores, measured values” [6, 7] was “no difference” and the “VISIA texture, measured values” [6, 7] was “no difference”. The “VISIA wrinkles, measured values” [6, 7] was “no difference”, the “redness, effect size” value [6, 7] was 0.65 and the “number of brown spots, effect size” value [6, 8] was 0.68. The “number of spots, effect size” value [6, 8] was 0.86.
